Series [1] deals with T. ni PMs. Put plainly: Extraction of chitin binding proteins from dissected PMs with Calcofluor. The source says: (§1) Calcofluor is a fluorescent dye with high chitin binding affinity. It has been utilized in studies on the formation of fungi and algal cell walls which are protective structures containing chitin and proteins. Calcofluor interferes with the cell wall formation by binding to nascent chitin molecules during cell wall formation, thus blocking chitin fibril assembly. Similar investigations on insect midgut chitin fibril formation using the chitin binding agent Calcofluor had not been approached until our recent studies were carried out. […] These isolated proteins have high chitin binding properties and are normally not extractable from fully formed PMs by detergents or extreme pH conditions. […] We believe that this phenomenon is due to the disruption of chitin fibril formation by the binding of Calcofluor to nascent chitin molecules as observed in other organisms.

In series [2] the test system is Hyphantria cunea. Description: PM formation with Calcofluor. The class given is in vivo.
Series [3] concerns Helicoverpa zea. Put plainly: PM formation with Calcofluor. It counts as in vivo.
The subject of series [4] is T. ni larvae. Put plainly: Baculovirus infection of Calcofluor treated larvae. The class given is in vivo. As to conditions: Calcofluor disrupted PM formation.
The test system of series [5] is Lymantria dispar. Description: PM formation with Calcofluor. The class given is in vivo.
In series [6] the test system is Pseudaletia unipuncta. Description: PM formation with Calcofluor. It counts as in vivo.
Series [7] concerns T. ni larvae. Put plainly: Feeding T. ni larvae artificial diet containing Calcofluor. It counts as in vivo. As to conditions: artificial diet containing 1% Calcofluor.
The test system of series [8] is T. ni larvae. Put plainly: PM formation in larvae fed Calcofluor. As to conditions: Calcofluor fed to T. ni larvae. The class given is in vivo.
Excerpt: as §1

Series [9] deals with TnGV enhancin (Trichoplusia ni granulosis virus, UniProt P29998). The following applies: 10 mM EDTA in incubation buffer. Here is the method:
The degradation of IIM was examined by SDS/PAGE analysis. A parallel treatment of IIM without enhancin was included as a control. […] To confirm the metalloprotease nature of enhancin, IIM was incubated with TnGV enhancin in the presence of 10 mM EDTA.

For series [10], the system named is endogenous midgut proteases. Put plainly: Resistance of IIM in PMs to endogenous digestive proteases. Set-up: species or system T. ni. The source says: The stability of the IIM when exposed to degestive enzymes for long periods is aided by the O-linked carbohydrate moieties found in associated glycoproteins. […] Control treatments using PMS with inactivated or inhibited endogenous midgut proteases, confirmed that the degradation of IIM in the presence of O-glycosidase was a result of hydrolysis by endogenous digestive proteases, following removal of the protective carbohydrate moiety, galactose β(1-3) N-acetylgalactosamine.

For series [11], the system named is T1, invertebrate intestinal mucin (IIM) from Trichoplusia ni peritrophic membranes (native protein).
T1 sequence: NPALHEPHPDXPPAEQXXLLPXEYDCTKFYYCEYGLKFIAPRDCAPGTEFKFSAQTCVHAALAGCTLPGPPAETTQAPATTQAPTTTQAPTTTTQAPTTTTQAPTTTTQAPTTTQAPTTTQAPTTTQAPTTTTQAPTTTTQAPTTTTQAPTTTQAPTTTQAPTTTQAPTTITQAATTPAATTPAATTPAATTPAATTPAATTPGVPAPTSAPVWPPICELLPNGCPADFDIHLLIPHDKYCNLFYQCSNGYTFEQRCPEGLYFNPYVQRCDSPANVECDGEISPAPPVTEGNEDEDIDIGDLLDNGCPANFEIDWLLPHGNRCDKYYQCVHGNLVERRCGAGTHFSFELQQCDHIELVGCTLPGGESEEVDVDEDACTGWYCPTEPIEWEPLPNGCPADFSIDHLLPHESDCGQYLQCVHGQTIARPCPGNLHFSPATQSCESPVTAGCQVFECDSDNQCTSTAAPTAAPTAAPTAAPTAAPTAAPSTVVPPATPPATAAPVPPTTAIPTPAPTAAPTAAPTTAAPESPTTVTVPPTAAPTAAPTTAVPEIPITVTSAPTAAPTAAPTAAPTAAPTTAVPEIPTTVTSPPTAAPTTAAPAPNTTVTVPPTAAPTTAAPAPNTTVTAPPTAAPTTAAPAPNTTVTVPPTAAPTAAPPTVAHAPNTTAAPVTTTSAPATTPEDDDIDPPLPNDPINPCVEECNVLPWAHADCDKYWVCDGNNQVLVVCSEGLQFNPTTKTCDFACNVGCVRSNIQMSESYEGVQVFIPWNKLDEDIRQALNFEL

For series [12], the system named is mucin isolated from Pseudaletia unipuncta peritrophic membranes.

The values that follow come from patent US6765127B1, “Invertebrate intestinal mucin cDNA and related products and methods” (Boyce Thompson Institute for Plant Research, Inc., priority 1998, dated 2004).

Chain of TnGV enhancin (P29998 whole entry): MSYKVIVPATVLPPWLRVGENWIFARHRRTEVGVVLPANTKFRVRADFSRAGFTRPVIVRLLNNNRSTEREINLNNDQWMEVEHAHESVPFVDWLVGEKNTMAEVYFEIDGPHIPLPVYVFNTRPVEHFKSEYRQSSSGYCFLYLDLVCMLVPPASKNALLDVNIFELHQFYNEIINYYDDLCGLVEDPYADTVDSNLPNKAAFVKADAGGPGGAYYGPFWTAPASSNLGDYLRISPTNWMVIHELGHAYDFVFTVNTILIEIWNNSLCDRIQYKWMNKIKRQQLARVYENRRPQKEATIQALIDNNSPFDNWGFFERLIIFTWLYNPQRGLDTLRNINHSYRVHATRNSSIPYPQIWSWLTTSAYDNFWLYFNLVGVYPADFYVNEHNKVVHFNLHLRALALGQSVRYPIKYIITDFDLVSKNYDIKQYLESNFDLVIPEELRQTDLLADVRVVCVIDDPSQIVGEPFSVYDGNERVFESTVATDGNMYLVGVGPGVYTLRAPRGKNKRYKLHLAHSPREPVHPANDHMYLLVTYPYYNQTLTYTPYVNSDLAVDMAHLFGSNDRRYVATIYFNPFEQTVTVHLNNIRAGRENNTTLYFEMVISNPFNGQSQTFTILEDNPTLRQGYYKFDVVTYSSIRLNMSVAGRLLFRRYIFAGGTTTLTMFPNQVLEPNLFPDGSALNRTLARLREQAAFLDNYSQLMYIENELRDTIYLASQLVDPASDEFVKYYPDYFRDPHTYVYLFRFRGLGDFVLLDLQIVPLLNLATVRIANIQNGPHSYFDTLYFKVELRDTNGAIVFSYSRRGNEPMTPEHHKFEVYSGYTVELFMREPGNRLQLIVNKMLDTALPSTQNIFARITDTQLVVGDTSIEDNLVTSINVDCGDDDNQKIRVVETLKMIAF

As to `O=S(=O)([O-])c1cc(Nc2nc(Nc3ccccc3)nc(N(CCO)CCO)n2)ccc1C=Cc1ccc(Nc2nc(Nc3ccccc3)nc(N(CCO)CCO)n2)cc1S(=O)(=O)[O-].[Na+].[Na+]` [Calcofluor], the “extraction of chitin binding proteins from dissected PMs” value in series [1] is “extract and solubilize chitin binding proteins”. The PM disruption/inhibition result in series [2], in [3], in [5] and in [6] was “further verified” in each case. Moreover, the “baculovirus infections in the larvae” value in [4] is “significantly increased baculovirus infections”. In addition, the insect mortality result in [7] is given as “insect mortality”. For the same compound, in series [7], the larval growth entry is “significantly slowed the growth”. For the same compound, the PM formation result in series [8] was “completely inhibited and/or disrupted PM formation”.
For `O=C(O)CN(CCN(CC(=O)O)CC(=O)O)CC(=O)O` [EDTA], the “effect on digestion of IIM by TnGV enhancin” value in [9] is “blocked the digestion of the IIM”.
In the case of “IIM: novel invertebrate intestinal mucin from T. ni peritrophic membranes; isoforms IIM14 and IIM22”, the “degradation of IIM in PMs by endogenous digestive proteases” value in series [10] (in the presence of O-glycosidase) is “quickly degraded”; in series [10] (sixteen hour incubation) it was “no degradation”.
Regarding “Trichoplusia ni granulosis virus (TnGV) enhancin”, in series [11], the “degradation of IIM examined by SDS/PAGE (in vitro, 1.25 µg/ml enhancin, 37° C., 3 hours or overnight)” value is “Incubation of IIM with TnGV enhancin showed that the enhancin had activity against IIM”; the “digestion of IIM in the presence of 10 mM EDTA” value was “The addition of 10 mM EDTA to the incubation buffer blocked the digestion of the IIM and confirmed the metalloprotease nature of enhancin”. In addition, the “degradation of the mucin” value in series [12] is “This mucin is also degraded by the TnGV enhancin”.
